Species: Rattus norvegicus
Experiment: Open TG-GATES - Regimen: Daily Repeat
Assay type: toxicity, organism-based, Sprague-Dawley
Set-up: regimen Daily Repeat, gender Male, age 6 weeks
Details: in vivo, po, 0 mg/kg, route gavage, dose level Control; for APTT / Bas / Eos / Fbg / Hb / Ht / Lym / MCH / MCHC / MCV / Mono / Neu / PT / Plat / RBC / Ret / WBC: tissue Blood; for KIDNEY_L / KIDNEY_R / KIDNEY_TOTAL: tissue Kidney; for LIVER: tissue Liver; for A/G / ALP / ALT / AST / BUN / CRE / Ca / Cl / DBIL / GLC / IP / K / LDH / Na / PL / RALB / TBIL / TC / TG / TP / gamma-GTP: tissue Plasma

`CCCCNC(=O)NS(=O)(=O)c1ccc(C)cc1` [TOLBUTAMIDE] was tested, and the TERMINAL_BW (72 h, time 3 day) was 235.2 g, the APTT (72 h, time 3 day) was 16.5 s and the Bas (72 h, time 3 day) was 0.2%. For the same compound, the Eos (72 h, time 3 day) was 1%, the Fbg (72 h, time 3 day) was 315.4 mg/dL and the Hb (72 h, time 3 day) was 14 g/dL. For the same compound, the Ht (72 h, time 3 day) was 43.2%, the Lym (72 h, time 3 day) was 74.6% and the MCH (72 h, time 3 day) was 20.4 pg. For the same compound, the MCHC (72 h, time 3 day) was 32.4%, the MCV (72 h, time 3 day) was 63 fL and the Mono (72 h, time 3 day) was 2.2%. For the same compound, the Neu (72 h, time 3 day) was 21.6%, the PT (72 h, time 3 day) was 13 s and the Plat (72 h, time 3 day) was 112.3 x10_4/uL. For the same compound, the RBC (72 h, time 3 day) was 686.4 x10_4/ul, the Ret (72 h, time 3 day) was 6.8% and the WBC (72 h, time 3 day) was 101.6 x10_2/uL. It also gave a KIDNEY_L (72 h, time 3 day) of 1 g, a KIDNEY_R (72 h, time 3 day) of 1 g and a KIDNEY_TOTAL (72 h, time 3 day) of 2 g. It also gave an LIVER (72 h, time 3 day) of 10.6 g, an A/G (72 h, time 3 day) of 0.9 and an ALP (72 h, time 3 day) of 1867 IU/L. The ALT (72 h, time 3 day) was 51 IU/L, the AST (72 h, time 3 day) was 75.2 IU/L and the BUN (72 h, time 3 day) was 15 mg/dL. The CRE (72 h, time 3 day) was 0.2 mg/dL, the Ca (72 h, time 3 day) was 11.3 mg/dL and the Cl (72 h, time 3 day) was 105.2 meq/L. For the same compound, the DBIL (72 h, time 3 day) was 0.014 mg/dL, the GLC (72 h, time 3 day) was 179 mg/dL and the IP (72 h, time 3 day) was 8.9 mg/dL. The K (72 h, time 3 day) was 4.1 meq/L, the LDH (72 h, time 3 day) was 64.4 IU/L and the Na (72 h, time 3 day) was 143.6 meq/L. For the same compound, the PL (72 h, time 3 day) was 149.8 mg/dL, the RALB (72 h, time 3 day) was 2.7 g/dL and the TBIL (72 h, time 3 day) was 0.066 mg/dL. It also gave a TC (72 h, time 3 day) of 79 mg/dL, a TG (72 h, time 3 day) of 79.2 mg/dL and a TP (72 h, time 3 day) of 5.7 g/dL. It also gave a gamma-GTP (72 h, time 3 day) of 1 IU/L, a TERMINAL_BW ([…], time 7 day) of 272.6 g and a TERMINAL_BW ([…], time 14 day) of 338.7 g. The TERMINAL_BW ([…], time 28 day) was 414.9 g, the APTT ([…], time 7 day) was 17 s and the Bas ([…], time 7 day) was 0.4%. It also gave an Eos ([…], time 7 day) of 1%, a Fbg ([…], time 7 day) of 274.8 mg/dL and a Hb ([…], time 7 day) of 13.6 g/dL. For the same compound, the Ht ([…], time 7 day) was 41%, the Lym ([…], time 7 day) was 80% and the MCH ([…], time 7 day) was 20.8 pg. It also gave an MCHC ([…], time 7 day) of 33.3%, an MCV ([…], time 7 day) of 62.4 fL and a Mono ([…], time 7 day) of 2.6%. It also gave a Neu ([…], time 7 day) of 15.6%, a PT ([…], time 7 day) of 13 s and a Plat ([…], time 7 day) of 127.5 x10_4/uL. The RBC ([…], time 7 day) was 657.4 x10_4/ul, the Ret ([…], time 7 day) was 5.7% and the WBC ([…], time 7 day) was 127.9 x10_2/uL. For the same compound, the APTT ([…], time 14 day) was 17.6 s, the Bas ([…], time 14 day) was 0.2% and the Eos ([…], time 14 day) was 1%. It also gave a Fbg ([…], time 14 day) of 284 mg/dL, a Hb ([…], time 14 day) of 14.4 g/dL and a Ht ([…], time 14 day) of 43.7%. For the same compound, the Lym ([…], time 14 day) was 78.4%, the MCH ([…], time 14 day) was 19.9 pg and the MCHC ([…], time 14 day) was 32.8%. It also gave an MCV ([…], time 14 day) of 60.7 fL, a Mono ([…], time 14 day) of 1.8% and a Neu ([…], time 14 day) of 18%. For the same compound, the PT ([…], time 14 day) was 13 s, the Plat ([…], time 14 day) was 124.7 x10_4/uL and the RBC ([…], time 14 day) was 721.4 x10_4/ul. It also gave a Ret ([…], time 14 day) of 4.4%, a WBC ([…], time 14 day) of 108 x10_2/uL and an APTT ([…], time 28 day) of 18.4 s. The Bas ([…], time 28 day) was 0.2%, the Eos ([…], time 28 day) was 1% and the Fbg ([…], time 28 day) was 277 mg/dL. The Hb ([…], time 28 day) was 15.8 g/dL, the Ht ([…], time 28 day) was 47.1% and the Lym ([…], time 28 day) was 80.2%. It also gave an MCH ([…], time 28 day) of 19.4 pg, an MCHC ([…], time 28 day) of 33.4% and an MCV ([…], time 28 day) of 58 fL. It also gave a Mono ([…], time 28 day) of 2%, a Neu ([…], time 28 day) of 16% and a PT ([…], time 28 day) of 13.6 s. It also gave a Plat ([…], time 28 day) of 107.1 x10_4/uL, an RBC ([…], time 28 day) of 813.4 x10_4/ul and a Ret ([…], time 28 day) of 2.3%. For the same compound, the WBC ([…], time 28 day) was 117.4 x10_2/uL, the KIDNEY_L ([…], time 7 day) was 1.1 g and the KIDNEY_R ([…], time 7 day) was 1.1 g. For the same compound, the KIDNEY_TOTAL ([…], time 7 day) was 2.2 g, the KIDNEY_L ([…], time 14 day) was 1.2 g and the KIDNEY_R ([…], time 14 day) was 1.3 g. It also gave a KIDNEY_TOTAL ([…], time 14 day) of 2.5 g, a KIDNEY_L ([…], time 28 day) of 1.5 g and a KIDNEY_R ([…], time 28 day) of 1.5 g. The KIDNEY_TOTAL ([…], time 28 day) was 2.9 g, the LIVER ([…], time 7 day) was 12.8 g and the LIVER ([…], time 14 day) was 15.3 g. The LIVER ([…], time 28 day) was 15.9 g, the A/G ([…], time 7 day) was 0.9 and the ALP ([…], time 7 day) was 1890.2 IU/L. For the same compound, the ALT ([…], time 7 day) was 43.2 IU/L, the AST ([…], time 7 day) was 69.2 IU/L and the BUN ([…], time 7 day) was 18.2 mg/dL. For the same compound, the CRE ([…], time 7 day) was 0.2 mg/dL, the Ca ([…], time 7 day) was 10.9 mg/dL and the Cl ([…], time 7 day) was 103.8 meq/L. It also gave a DBIL ([…], time 7 day) of 0.012 mg/dL, a GLC ([…], time 7 day) of 189.4 mg/dL and an IP ([…], time 7 day) of 8.1 mg/dL. It also gave a K ([…], time 7 day) of 4.1 meq/L, an LDH ([…], time 7 day) of 64.8 IU/L and a Na ([…], time 7 day) of 142.2 meq/L. The PL ([…], time 7 day) was 148.8 mg/dL, the RALB ([…], time 7 day) was 2.6 g/dL and the TBIL ([…], time 7 day) was 0.062 mg/dL. The TC ([…], time 7 day) was 67.2 mg/dL, the TG ([…], time 7 day) was 139.8 mg/dL and the TP ([…], time 7 day) was 5.6 g/dL. For the same compound, the gamma-GTP ([…], time 7 day) was 0.8 IU/L, the A/G ([…], time 14 day) was 0.8 and the ALP ([…], time 14 day) was 1297.4 IU/L. The ALT ([…], time 14 day) was 37 IU/L, the AST ([…], time 14 day) was 66.4 IU/L and the BUN ([…], time 14 day) was 16.6 mg/dL. It also gave a CRE ([…], time 14 day) of 0.2 mg/dL, a Ca ([…], time 14 day) of 11 mg/dL and a Cl ([…], time 14 day) of 104.2 meq/L. The DBIL ([…], time 14 day) was 0.012 mg/dL, the GLC ([…], time 14 day) was 185.6 mg/dL and the IP ([…], time 14 day) was 7.1 mg/dL. It also gave a K ([…], time 14 day) of 3.9 meq/L, an LDH ([…], time 14 day) of 58.8 IU/L and a Na ([…], time 14 day) of 142.6 meq/L. The PL ([…], time 14 day) was 149 mg/dL, the RALB ([…], time 14 day) was 2.7 g/dL and the TBIL ([…], time 14 day) was 0.056 mg/dL. The TC ([…], time 14 day) was 72.8 mg/dL, the TG ([…], time 14 day) was 131.2 mg/dL and the TP ([…], time 14 day) was 5.8 g/dL. The gamma-GTP ([…], time 14 day) was 1 IU/L, the A/G ([…], time 28 day) was 0.8 and the ALP ([…], time 28 day) was 1151.4 IU/L. It also gave an ALT ([…], time 28 day) of 40.6 IU/L, an AST ([…], time 28 day) of 62 IU/L and a BUN ([…], time 28 day) of 17 mg/dL. The CRE ([…], time 28 day) was 0.3 mg/dL, the Ca ([…], time 28 day) was 10.8 mg/dL and the Cl ([…], time 28 day) was 105.2 meq/L. The DBIL ([…], time 28 day) was 0.014 mg/dL, the GLC ([…], time 28 day) was 186.6 mg/dL and the IP ([…], time 28 day) was 6.7 mg/dL. It also gave a K ([…], time 28 day) of 4 meq/L, an LDH ([…], time 28 day) of 52 IU/L and a Na ([…], time 28 day) of 143.2 meq/L. The PL ([…], time 28 day) was 162.4 mg/dL, the RALB ([…], time 28 day) was 2.8 g/dL and the TBIL ([…], time 28 day) was 0.062 mg/dL. It also gave a TC ([…], time 28 day) of 78 mg/dL, a TG ([…], time 28 day) of 170 mg/dL and a TP ([…], time 28 day) of 6.3 g/dL. For the same compound, the gamma-GTP ([…], time 28 day) was 1.2 IU/L.
